In general, viability refers to a read-out of living cells in per cent, often relative to untreated cells.

The series can be described thus: in vitro. The note with it: human, hela cells, % viability.
In the case of `Cc1nn(C)c(C)c1NC(=O)CN1CCN(c2cccc(Cl)c2)CC1` [CBK306052], the viability at 28.5 h, 10 µM was determined as 81.1%.
As for `CC1CCCN(Cc2nc3c([nH]2)c(=O)n(C)c(=O)n3C)C1` (centres unmarked) [CBK306054], the figure is 88.7%; as for `Cc1nc(CN2CCN(c3ccc4nnnn4n3)CC2)cs1` [CBK306056], 79.3%; as for `Cc1nn(C)c(C)c1NC(=O)CN1CCN(c2ccccc2Cl)CC1` [CBK306058], 82.6%.
As for `CC(=O)C(C)n1c(CN2CCCC(C)C2)nc2c1c(=O)n(C)c(=O)n2C` (centres unmarked) [CBK306061], the figure is 88.2%.
Take `COCCn1c(CN2CCCC(C)C2)nc2c1c(=O)n(C)c(=O)n2C` (centres unmarked) [CBK306063]: the viability at 28.5 h, 10 µM was 108%.
In the case of `Cc1cc(C(=O)N2CCc3c(sc4ncnc(N)c34)C2)on1` [CBK306067], the viability at 28.5 h, 10 µM amounted to 85.1%.
On to `O=C(CCc1nc2sc3c(c2c(=O)[nH]1)CCCC3)N1CCCC1` [CBK306069], for which the viability at 28.5 h, 10 µM is 90.8%.
With `CCN(CC(=O)NCc1ccc(F)cc1)S(=O)(=O)c1c(C)n[nH]c1C` [CBK306074], the viability at 28.5 h, 10 µM was found to be 93.3%.
As for `CN(C(=O)CCc1nc2sc3c(c2c(=O)[nH]1)CCCC3)C1CCCCC1` [CBK306075], the figure is 88.2%.
As for `COc1ccc(CC(=O)NC(CCSC)c2nnc3ccccn23)cc1` (centres unmarked) [CBK306077], the figure is 96%; as for `CC1CCc2c(sc3ncnc(NCC(=O)N4CCCC4)c23)C1` (centres unmarked) [CBK306079], 103%; as for `Cc1cc(NC(=O)Cc2cn3ccsc3n2)ccc1N1CCCC1` [CBK306080], 79.8%.
As for `CS(=O)(=O)NC1CCN(S(=O)(=O)c2cc(Cl)cc(Cl)c2)CC1` [CBK306082], the figure is 84.3%; as for `Cc1nc2nc(N)nn2c(C)c1CCC(=O)OCc1cccc(C#N)c1` [CBK306083], 88.1%.
Take `CCOCCCn1c(SC(C)C#N)nc2ccc(Br)cc2c1=O` (centres unmarked) [CBK306084]: the viability at 28.5 h, 10 µM amounted to 85.7%.
Consider `CC1CCCCN1C(=O)CCc1nc2sc3c(c2c(=O)[nH]1)CCCC3` (centres unmarked) [CBK306086], for which the viability at 28.5 h, 10 µM is 112%.
On to `CCCC(=O)Nc1ccc(-c2csc(N3CCCC3=O)n2)cc1` [CBK306088], for which the viability at 28.5 h, 10 µM was 82%.
Take `CC(=O)c1cccc(NC(=O)CCn2[nH]c(=O)ccc2=O)c1` [CBK306094]: the viability at 28.5 h, 10 µM was 91.4%.
For `O=C(c1ccccc1)N1CCN(Cc2cc(=O)n3ccsc3n2)CC1` [CBK306095], the viability at 28.5 h, 10 µM came to 94.4%.
Take `O=C(c1ccccc1O)N1CCN(Cc2cc(=O)n3ccsc3n2)CC1` [CBK306096]: the viability at 28.5 h, 10 µM was 90.2%.
Regarding `CCc1nnc(SCC(=O)Nc2ccc(CN3CCOCC3)cc2)[nH]1` [CBK306097], the viability at 28.5 h, 10 µM was 84.7%.
With `O=C(c1ccc(O)nc1)N1CCN(Cc2cc(=O)n3ccsc3n2)CC1` [CBK306098], the viability at 28.5 h, 10 µM is 86.3%.
As for `COCCNC(=O)c1cc(C2CC2)nc2c1cnn2C(C)C` [CBK306099], the figure is 101%; as for `CCN1CCC(NC(=O)CSc2nc3ccccc3n2CCOC)CC1` [CBK306100], 118%; as for `COCCN1CCN(c2nc(-c3ccncc3)nc3c2CCC3)CC1` [CBK306101], 95.7%.
As for `Cc1nc(C)n(CC2CCCCN2Cc2cn3ccccc3c2C#N)n1` (centres unmarked) [CBK306102], the figure is 85.1%.
As for `Cc1nc(C)n(CC2CCCN(Cc3cn4ccccc4c3C#N)C2)n1` (centres unmarked) [CBK306103], the figure is 92.6%; as for `CN(CC(=O)Nc1ccn(Cc2cccnc2)n1)c1ccc(C#N)cn1` [CBK306105], 87.3%.
`CN(C(=O)c1cccn1C)C1CCN(c2ncnc3ccccc23)CC1` [CBK306110]: the viability at 28.5 h, 10 µM came out at 91.8%.
Consider `NC(=O)COc1ccc(CNC(=O)CN2CCc3sccc3C2)cc1` [CBK306111], for which the viability at 28.5 h, 10 µM was 99.4%.
As to `Cc1nc(SCCO)c2c(=O)n(C)c(=O)n(CC(C)C)c2n1` [CBK306114], the viability at 28.5 h, 10 µM worked out at 85.8%.

Source of the values: publication PMC12040169 (PLOS Biology, 2025).
